Measurements published in patent US8702959B2, “System and method for detecting a substance in liquid” (priority 2009, dated 2014).

Columns and labels:
[1] = system: E. coli reporter strain panel
Protocol: The AP activity was measured electrochemically at potential […] by making use of pAPP in a point assay after induction period. The determined SOS-induction factors for each concentration level are plotted against each other.
To increase the capabilities of the reporter cells as genotoxicity bioreporters, a series of knock-out mutations was introduced to the E. coli RFM443's genome. The genes that were selected to be deleted are genes affiliated with DNA repair mechanisms (Nucleotide Exicision Repair, uvrA; DNA Pol V, umuD) and a structural gene that can influence cell permeability (lipopolysaccharide, rfaE). […] The deletion mutations in uvrA and umuD were transferred by P1 transduction. […] From each gene deletion experiment, eight Km^R colonies were chosen and checked for the correct mutation structure by PCR using a combination of locus- and kanamycin-specific primers (Table 1). PCR fragments with the right size of both junctions were sent to sequencing. Sequences were indentified using BLAST program operating on the default options querying the NCBI nucleotide collection database. The construction of double or triple mutants was obtained by the elimination of the resistance using a helper plasmid expressing the FLP recombinase, which acts on the FRT (FLP recognition target) sites flanking the resistance gene. Using the methods described above, a set of mutated reporter strains was constructed as detailed in Table 2. Strains dedicated to harbor the phoA reporter gene were also engineered to contain a deletion in the chromosomal phoA gene to eliminate the possibility of native PhoA activity.

[2] = system: Escherichia coli RFM443/pBR2TTS cells harboring a sulA::phoA fusion; assay type: cell-based
Protocol: Escherichia coli RFM443/pBR2TTS cells harboring a sulA::phoA fusion were grown overnight in MOPS growth medium containing 0.1 mg/ml ampicillin with shaking conditions at 37° C. The overnight culture was diluted ×1/100, regrown to an optical density of 0.2 (600 nm). Finally NA (FW 254.22, Sigma) was added to a final concentration of 10 μg/ml. Following further incubation at various times of 0, 60, 90, or 120 minutes under similar conditions, aliquots of 3 μl were introduced into the electrochemical microchambers. Shortly after applying a constant potential of 300 mV vs. Ag/AgCl in the electrochemical chamber, the enzymatic substrate para-Aminophenyl phosphate (pAPP, MW 211.09, diagnoSwiss) was added reaching a concentration of 0.8 mg/ml.
Control samples were prepared with the addition of growth medium instead of NA or pAPP to the incubation stage in order to verify the influence of NA on the induction of the bacteria and pAPP on the generated bio-electrochemical response.

[3] = system: Salmonella typhimurium TA1535 pSK1002 cells; assay: Genotoxicity bio-detection of IQ with Salmonella typhimurium umuC'-'lacZ reporter, amperometry on micro-chip; assay type: cell-based
Protocol: Salmonella typhimurium TA1535 pSK1002 [Y. Oda et al., Mutat. Res. 147 (1985) 219] cells were used for the IQ bio-detection. The construction of the pSK1002 plasmid was reported in H. Shinagawa et al. Gene. 23 (1983) 167, which is hereby incorporated by reference in its entirety. The exposition of bacteria was done according to Reifferscheid et al. [Reifferscheid et al., Mutat. Res. 253 (1991) 215]. An over night culture of the bacteria was refreshed in 20 ml TGA-medium (1:10 dilution of bacteria) and grown for further 2 h (37° C., 150 rpm). Prior to exposition the optical density (λ=595 nm) of the bacterial culture was adjusted to 0.44 by dilution with TGA medium. […] The OD595 of the exposed mixture was measured after an incubation time of 2 h at 37° C. and 900 rpm in shaking conditions.
The activity of the reporter enzyme β-galactosidase in the induced bacteria was measured by making use of the substrate para-Aminophenyl β-D-galactopyranoside (pAPG, 0.5 mM final concentration, Sigma). Shortly after the addition of pAPG, aliquots of 3 μl were introduced into the electrochemical microchambers and a constant potential of 300 mV vs. Ag/AgCl was applied on the electrochemical chamber in order to quantify the enzymatically generated product pAP. The setup was connected in such a way that the output current was monitored (i.e. amperometry measurement).

**Q.** With `OO` [H2O2, hydrogen peroxide] as the compound, how does the “response of the reporter to model genotoxicants” value ([1]; AP activity measured electrochemically at potential 0.3 mV with pAPP, point assay after induction, FIG. 14) read?
**A.** responsive

**Q.** What about the “response of the uvrA mutant reporter strain” value ([1]; uvrA mutant, FIG. 14) of the same compound?
**A.** elevated response

**Q.** With `CCn1cc(C(=O)O)c(=O)c2ccc(C)nc21` [NA, Nalidixic acid] as the compound, how does the “chrono-amperometric response of E. coli bacteria in the presence of toxicant after pAPP was added” value ([2]; NA 10 μg/ml, 1 hr incubation, pAPP 0.8 mg/ml, 300 mV vs. Ag/AgCl, FIG. 10A) read?
**A.** increasing electrochemical current

**Q.** And the “electrochemical current of induced bacteria compared with non-induced bacteria, pAPP added to both” value ([2]; NA 10 μg/ml, 1 hr incubation, pAPP 0.8 mg/ml, FIG. 10A)?
**A.** more rapidly increasing electrochemical current than non-induced bacteria

**Q.** And the “effect of induction time on the slope of the detected electrochemical current” value ([2]; NA 10 μg/ml, induction 0, 60, 90 or 120 minutes, FIGS. 10B-C)?
**A.** For longer induction times the current increased more rapidly

**Q.** What about the “detection by the prototype biosensor” value ([2]; microfluidic whole cell prototype biosensor, model toxicant) of the same compound?
**A.** successfully detected

**Q.** And the “response of the ΔrfaE reporter strains” value ([1]; ΔrfaE mutants, FIG. 14)?
**A.** respond to lower concentrations

**Q.** How did the “dependence of the differential slope of the electrochemical current on concentration” value ([3]; IQ 5, 1.25, 0.31 μM activated with S9-fraction, 2 h, pAPG 0.5 mM, 300 mV vs. Ag/AgCl, FIG. 11A) turn out when `Cn1c(N)nc2c3cccnc3ccc21` [IQ, 2-Amino-3-methylimidazo[4,5-f]quinoline] was run?
**A.** more rapidly increasing electrochemical current characteristics

**Q.** And the “detection by the prototype biosensor” value ([3]; microfluidic whole cell prototype biosensor, genotoxic material)?
**A.** successfully detected

**Q.** What about the “response of the reporter strain mutated in uvrA and rfaE genes” value ([1]; following metabolic activation with lyophilized liver S9 fraction, compared with umu-test reporter strain) of the same compound?
**A.** responded
